Measurements taken from BindingDB's records for doi:10.1016/s0960-894x(00)00138-4 (Berlex Biosciences, 2000).

Biological target: Cationic trypsin (Bos taurus)
Test: In vitro inhibition of bovine trypsin.

Ki [nM]	SMILES
510	N=C(N)c1ccc(-n2c3ccccc3c3ccc(OCc4ccc5ccc(C(=N)N)cc5c4)cc32)cc1 [7-[9-(4-Carbamimidoyl-phenyl)-9H-carbazol-2-yloxymethyl]-naphthalene-2-carboxamidine]
1620	N=C(N)c1ccc(-n2ccc3ccc(NCc4cccc(C(=N)N)c4)cc32)cc1 [3-{1-[4-amino(imino)methylphenyl]-1H-6-indolylaminomethyl}phenyl-iminomethanamine]
410	N=C(N)c1ccc(-n2ccc3ccc(NC(=O)c4cccc(C(=N)N)c4)cc32)cc1 [3-Carbamimidoyl-N-[1-(4-carbamimidoyl-phenyl)-1H-indol-6-yl]-benzamide]
300	N=C(N)c1ccc(-n2ccc3ccc(NCc4ccc5ccc(C(=N)N)cc5c4)cc32)cc1 [7-{[1-(4-Carbamimidoyl-phenyl)-1H-indol-6-ylamino]-methyl}-naphthalene-2-carboxamidine]
90	CN(C)C(=O)COc1ccc2c3ccccc3n(Cc3ccc4ccc(C(=N)N)cc4c3)c2c1 [2-[9-(7-Carbamimidoyl-naphthalen-2-ylmethyl)-9H-carbazol-2-yloxy]-N,N-dimethyl-acetamide]
20	CCOC(=O)c1cc2ccc(OC3CCN(C(C)=N)CC3)cc2n1Cc1ccc2ccc(C(=N)N)cc2c1 [1-(7-Carbamimidoyl-naphthalen-2-ylmethyl)-6-[1-(1-imino-ethyl)-piperidin-4-yloxy]-1H-indole-2-carboxylic acid ethyl ester]
